Results: patent publication US20240335570A1, “FOLATE RECEPTOR-TARGETED CONJUGATES WITH BRUSH BORDER MEMBRANE ENZYME-CLEAVABLE LINKERS AND METHODS OF USE IN IMAGING AND TREATING CANCER” (PURDUE RESEARCH FOUNDATION, priority 2021, published 2024)
No end group written: not given here.

Test system: KB cells
Assay: Folate conjugate binding curves in KB cells by flow cytometry
Conditions: KB cells incubated 1 hour at 4° C. with increasing concentrations of conjugate, concentrations normalized via fluorescence, read-out: Kd (folate conjugate binding curve)
Protocol: KB cells were incubated for 1 hour at 4° C. with increasing concentrations of OTL38, BBM1, BBM2, or BBM3 in staining buffer, washed three times with staining buffer, and then analyzed via flow cytometry.
KB cells were incubated for 1 hour at 4° C. with increasing concentrations of OTL38, BBM1, BBM2 or BBM3 in staining buffer, washed three times with staining buffer, suspended in phosphate-buffered saline, and then analyzed via flow cytometry. Concentrations of all conjugates were normalized via fluorescence.

`CCCCCN1c2ccc(C)cc2C(C)(C)C1CCc1cccc(CCC2N(CCCCC)c3ccc(C)cc3C2(C)C)c1Oc1ccc(CCNC(=O)CCN2C(=O)CC(SCC(NC(=O)C(CCCCN)NC(=O)[C@@H](NC(=O)C(CCCC)NC(=O)CCC(NC(=O)c3ccc(NCc4cnc5nc(N)nc(O)c5n4)cc3)C(=O)O)C(C)C)C(=O)O)C2=O)cc1` (stereo partly drawn) [BBM1] gave a Kd of 12.3 nM.

In the case of “BBM2: Folate dye conjugate; a peptide with the sequence M-V-K-G-Y-G-K-C (MVKGYGKC; also: folate dye conjugate (site not given here))”, the Kd is reported as 29.6 nM.

Work on OTL38 [reference compound] yielded a Kd of 6.7 nM.
